Entries after “also recorded” stand apart in the source; their conditions may differ.
Test system: patterned neonatal rat cardiomyocytes
Test: Multielectrode extracellular recordings from patterned spontaneously beating cardiomyocytes on MEAs (drug effect)
Type: cell-based
Protocol: MEAs containing 60, 10 μm diameter electrodes (Multichannel Systems, Germany) were cleaned by soaking the arrays in a detergent solution for 2 hours followed by sonication for 10 minutes. The arrays were then oxygen plasma cleaned for 20 minutes. Surface modification was completed by incubation of the MEAs in a 3 mM PEG silane, 2-[Methoxypoly(ethyleneoxy)propyl]trimethoxysilane (MW=460-590, Gelest), solution in toluene, with 37% concentrated HCL added to achieve a final value of 0.08% (0.8 ml HCL/L), for 45 minutes at room temperature. The arrays were then rinsed once in toluene, twice in ethanol, twice in water and sonicated in water for 2 minutes to remove the non-covalently linked material. The arrays were air dried with nitrogen and stored in a dessicator overnight.
The MEAs were patterned by laser ablation photolithography using a deep UV (193 nm) excimer laser (Lambda Physik) at a pulse power of 230 mW and a frequency of 10 Hz for 45 seconds through a quartz photomask (Bandwidth foundry, Eveleigh, Australia). The arrays were sterilized using 70% isopropanol and then incubated with 5 μg/ml of fibronectin in a Phosphate buffered solution (Invitrogen) for 20 minutes at room temperature. The solution was removed and the surface was first rinsed with PBS, followed by the plating medium, and then dried before the cells were plated.
The neonatal rat cardiomyocyte culture was prepared using the cardiac isolation kit from Worthington[40]. All animal work was approved by the UCF IACUC and followed NIH guidelines. Briefly, two day-old rat pups were euthanized in a precharged CO2 chamber. Hearts were dissected and minced in ice cold Hanks balanced salt solution (HBSS). Cardiac myocytes were dissociated by incubation of the hearts in trypsin (100 μg/ml in HBSS) for 16 hours at 2-8° C. The hearts in the trypsin solution were briefly warmed with a trypsin inhibitor before adding collegenase (300 units/ml in L-15 medium) for 45 minutes in a water bath at 37° C. followed by mechanical trituration. The cell solution was filtered to remove any remaining tissue and centrifuged at 50 g for 5 minutes at 22° C. The cells were resuspended in high glucose Dulbecco's modified eagle medium (DMEM, Gibco/Invitrogen) supplemented with 10 ml Fetal Bovine Serum (Gibco/Invitrogen) and 1 ml penicillin streptomycin (Gibco/Invitrogen), preplated in Petri dishes and incubated at 37° C. and in 5% CO2 for 45 minutes. This was necessary to eliminate the fibroblasts. The supernatant from the Petri dishes was centrifuged at 50 g for 5 min at 22° C. The cells were then resuspended in the plating medium. The serum-free plating medium consisted of: 100 ml Ultraculture medium (Bio Whittaker Cambrex) supplemented with 10 ml B27, 1 ml L-glutamine (Gibco/Invitrogen), 1 ml Penicillin Streptomycin, 0.375 g dextrose (Fisher Scientific) in 800 μl water, 1 ml non-essential amino acids and 1 ml of Hepes buffer (Gibco/Invitrogen)[41]. Additional growth factors were also added to improve cell survival in the serum-free conditions. They included 0.1 μg/ml of L-thyroxine, 10 ng/ml of Epidermal growth factor (Sigma-aldrich) and 0.5 μg/ml of Hydrocortisone (BD biosciences). Cells were plated at a density of 1000 cells/mm^2 on the MEAs. The medium was changed 24 hours after plating. Subsequent changing of the medium was performed every third day.
The cardiac myocytes were cultured on patterned metal MEAs (Planar 10 μm electrodes, 200 μm separation, Multichannel-systems). A 60 channel amplifier (MEA1040, Multichannel-systems) was used to record electrical activity from the spontaneously beating cardiac cells. The same electrodes were also used for stimulation utilizing a stimulus generator (STG 1002, Multichannel systems). The cells were stimulated utilizing 500 mV, 1 ms wide bipolar pulses at 2 Hz. The recording medium was the same as the plating medium with the pH adjusted to 7.3 using HEPES buffer. […]

[1] = 2 μM Sparfloxacin in recording medium

Row | Compound | Conduction velocity (CV) (50 μM 1-Heptanol in recording medium, spontaneously beating cells, n=4 MEAs, before treatment 0.197±0.014 m/s) [m/s] | Time for propagation of the excitation wave versus value before treatment (50 μM 1-Heptanol, FPs recorded at 15 minute intervals) | Effect on CV in the cardiac myocyte monolayers (in words) (1-Heptanol, 50 μM) | Synchronicity of the beating cells (1-Heptanol, 50 μM) | Conduction velocity (CV), propagation of excitation after the drug (1-Heptanol, between electrodes 84 and 52 of the pattern, before drug 0.197 m/sec, FIG. 5) [m/sec] | Beating pattern, synchrony and conduction (in words) [1] | Field potential (FP) length [1] | Time to significant change in the spontaneous beating frequency [1] [min]
1 | CCCCCCCO [1-Heptanol] | 0.0066±0.0004 | significantly increased | drastically decreased the CV in the cardiac myocyte monolayers without completely blocking the conduction | maintaining the synchronicity of the beating cells | 0.0066 | – | – | –
2 | C[C@@H]1CN(c2c(F)c(N)c3c(=O)c(C(=O)O)cn(C4CC4)c3c2F)C[C@H](C)N1 [Sparfloxacin] | – | – | – | – | – | burst like activity with higher intra-burst frequencies and no synchrony between electrodes; also recorded: non-synchronous contractions similar to fibrillation and burst-like beating activity; also recorded: caused fibrillations which initiated a complete conduction block | increased FP length | ≤ 25

Reference: US9404140B1, “Patterned cardiomyocyte culture on microelectrode array” (The University of Central Florida Research Foundation, Inc., priority 2009, dated 2016)
